Where two headings read alike, the source gives them in different places.
Assays:
[1] = test system: SK-HEP-1; assay: XTT viability assay, SK-HEP-1; assay type: cell-based; settings: Homo sapiens, SK-HEP1; Liver Cancer, SK-HEP-1, XTT
Excerpt: (§1) Cells and culture conditions. Primary astrocytes (Lonza, Walkersville, Md.; ABM™ Basal Media with AGM™ SingleQuots™ Supplement Pack), fibroblast (ATCC; Fibroblast Basal Medium (ATCC© PCS-201-030™) with Fibroblast Growth Kit-Serum-free (ATCC© PCS-201-040™)), airway epithelial cell (ATCC; Airway Epithelial Cell Basal Medium (ATCC© PCS-300-030™) with Bronchial Epithelial Cell Growth Kit (ATCC© PCS-300-040™)), renal proximal tubule (ATCC; Renal Epithelial Cell Basal Medium (ATCC© PCS-400-030™) with Renal Epithelial Cell Growth Kit (ATCC© PCS-400-040™)), prostate epithelial cell (Lonza; PrEGM™ BulletKit™) and mammary epithelial cell (Lonza; MEBM™ BulletKit™) were kept in a humidified incubator at 37° C. adjusted to 5% CO2. […]
(§2) XTT assay. […] Cell viability was measured using the R&D Systemsm TACS XTT Cell Proliferation/Viability Assay (R&D Systems, Minneapolis, Minn.).

[2] = test system: BxPC3; assay: XTT viability assay, BxPC3; assay type: cell-based; settings: Homo sapiens, BXPC-3, Pancreatic Cancer
Excerpt: as §1, §2

[3] = test system: HEK 293T cells; assay: HEK293T cell proliferation assay ([3H]-thymidine incorporation); assay type: cell-based, human; settings: for IC50: Homo sapiens, HEK-293T, 24 h, read-out: IC50 ± SEM
Excerpt: (§3) Cells and culture conditions. Primary astrocytes (Lonza, Walkersville, Md.; ABM™ Basal Media with AGM™ SingleQuots™ Supplement Pack), fibroblast (ATCC; Fibroblast Basal Medium (ATCC© PCS-201-030™) with Fibroblast Growth Kit-Serum-free (ATCC© PCS-201-040™)), airway epithelial cell (ATCC; Airway Epithelial Cell Basal Medium (ATCC© PCS-300-030™) with Bronchial Epithelial Cell Growth Kit (ATCC© PCS-300-040™)), renal proximal tubule (ATCC; Renal Epithelial Cell Basal Medium (ATCC© PCS-400-030™) with Renal Epithelial Cell Growth Kit (ATCC© PCS-400-040™)), prostate epithelial cell (Lonza; PrEGM™ BulletKit™) and mammary epithelial cell (Lonza; MEBM™ BulletKit™) were kept in a humidified incubator at 37° C. adjusted to 5% CO2. Prostate (PC3, LNCaP, DU-145), breast (MDA-MB-231, MDA-MB-453, SK-BR-3), head and neck (A253, Detroit 562, SCC-25), melanoma (SK-Mel-3, SK-Mel-1, RPMI-7951), pancreatic (CfPAC-1, BxPC3, SW1990), lung (A549, NCI-H1299, NCI-H1437) and liver (SNU-475, SK-HEP-1, SNU-387) cancer cell lines were obtained from ATCC and cultured in their respective media (prostate cells: RPMI-1640, MDA-MB-231: RPMI-1640, MDA-MB-453: Leibovitz's L-15, SK-BR-3: McCoy's 5a, A253: McCoy's 5a, Detroit 562: EMEM, SCC-25: DMEM, SK-Mel-3: McCoy's 5a, SK-Mel-1: EMEM, RPMI-7951: EMEM), CfPAC-1: IMDM, BxPC3: RPMI-1640, SW1990: Leibovitz's L-15), A549: F-12K, NCI-H1299: RPMI-1640, NCI-H1437: RPMI-1640, SNU-475: RPMI-1640, SK-HEP-1: EMEM, SNU-387: RPMI-1640. All media were supplemented with 10% (vol/vol) filtered fetal bovine serum (FBS, Invitrogen, Carlsbad, Calif.), 1% penicillin/streptomycin (Invitrogen) and maintained in a humidified incubator at 37° C. with 5% CO2 except for MDA-MB-453 and SW1990 grown at 37° C. without CO2 control. Wild type (ATCC) and C342T XPB knock-in cells (named T7115) of Human Embryonic Kidney 293T (HEK293T), HeLa (ATCC) were cultured in DMEM (GIBCO) with 10% (vol/vol) filtered fetal bovine serum (FBS, Invitrogen, Carlsbad, Calif.), 1% penicillin/streptomycin (Invitrogen).
Proliferation and viability assays. [^3H]-thymidine incorporation. HEK293T cells (10,000 cells/well) were seeded into 96-well plates then cultured in DMEM plus 10% FBS and 1% penicillin/streptomycin at 37° C. with 5% CO2 overnight. Drugs were added at indicated concentrations and incubation was continued for an additional 24 h. For hypoxia, PC3 (5,000 cells/well) were exposed to 1% O2 (Airgas) in a humidified hypoxia chamber (Billups-Rothenberg) in 37° C. for 48 h prior to drug exposure for 48 h. Treated cells were then pulsed using an aliquot of 1 μCi of [^3H]-thymidine (Perkin Elmer) per well for an additional 6 h. Radiolabelled cells were harvested onto a printed Filtermat A glass fiber filter (Perkin Elmer) using a Tomtec Harvester 96 Mach III M. Betaplate Scint (Perkin Elmer) scintillation fluid was added to radiolabelled filters followed by scintillation counting on Microbeta2 LumiJET Microplate Counter (Perkin Elmer).

[4] = test system: SK-Mel-3; assay: XTT viability assay, SK-Mel-3; assay type: cell-based; settings: Homo sapiens, SK-MEL3; Melanoma, SK-Mel-3, XTT
Excerpt: as §1, §2

[5] = test system: A549; assay: XTT viability assay, A549; assay type: cell-based; settings: Homo sapiens, Lung Cancer
Excerpt: as §1, §2

[6] = test system: DU-145; assay: XTT viability assay, DU-145; assay type: cell-based; settings: Homo sapiens; Prostate Cancer, DU-145, XTT
Excerpt: as §1, §2

[7] = test system: Fibroblast; assay: XTT viability assay, primary fibroblasts; assay type: cell-based; settings: Homo sapiens, Primary normal cells
Excerpt: as §1, §2

[8] = test system: RPMI-7951; assay: XTT viability assay, RPMI-7951; assay type: cell-based; settings: Homo sapiens; Melanoma, RPMI-7951, XTT
Excerpt: as §1, §2

[9] = test system: MDA-MB-453; assay: XTT viability assay, MDA-MB-453; assay type: cell-based; settings: Homo sapiens; Breast Cancer, MDA-MB-453, XTT
Excerpt: as §1, §2

[10] = test system: SNU-475; assay: XTT viability assay, SNU-475; assay type: cell-based; settings: Homo sapiens; Liver Cancer, SNU-475, XTT
Excerpt: as §1, §2

[11] = test system: MDA-MB-231; assay: XTT viability assay, MDA-MB-231; assay type: cell-based; settings: Homo sapiens; Breast Cancer, MDA-MB-231, XTT
Excerpt: as §1, §2

[12] = test system: SK-Mel-1; assay: XTT viability assay, SK-Mel-1; assay type: cell-based; settings: Homo sapiens; Melanoma, SK-Mel-1, XTT
Excerpt: as §1, §2

[13] = test system: primary human cells; assay: XTT viability assay, panel of primary non-malignant cells (means and ranges); assay type: cell-based
Excerpt: as §3
XTT assay. Five thousand cells/well were plated on flat-bottom, transparent 96-well plate in a full growth media and incubated at appropriate culture conditions. Twenty four hours after seeding, cells were treated with indicated drugs and incubated for 47 hrs. Cell viability was measured using the R&D Systemsm TACS XTT Cell Proliferation/Viability Assay (R&D Systems, Minneapolis, Minn.).

[14] = test system: SK-BR-3; assay: XTT viability assay, SK-BR-3; assay type: cell-based; settings: Homo sapiens; Breast Cancer, SK-BR-3, XTT
Excerpt: as §1, §2

[15] = test system: SNU-387; assay: XTT viability assay, SNU-387; assay type: cell-based; settings: Homo sapiens; Liver Cancer, SNU-387, XTT
Excerpt: as §1, §2

[16] = test system: LNCaP; assay: XTT viability assay, LNCaP; assay type: cell-based; settings: Homo sapiens, Prostate Cancer
Excerpt: as §1, §2

[17] = test system: Detroit 562; assay: XTT viability assay, Detroit 562; assay type: cell-based; settings: Homo sapiens; Head and Neck Cancer, Detroit 562, XTT
Excerpt: as §1, §2

[18] = test system: NCI-H1299; assay: XTT viability assay, NCI-H1299; assay type: cell-based; settings: Homo sapiens, Lung Cancer
Excerpt: as §1, §2

[19] = Non-malignant cells, read-out: mean IC50 by cell type
[20] = cell viability, panel of normal primary cells, read-out: range of IC50 values for primary cells

For CC(C)[C@]12O[C@H]1[C@@H]1O[C@]13[C@]1(O[C@H]1C[C@H]1C4=C(CC[C@@]13C)C(=O)OC4)[C@@H]2OC(=O)CCC(=O)O[C@@H]1OC(CO)[C@@H](O)C(O)C1O (stereo partly drawn) [Compound 10], the IC50 [1] was 3.38 ± 0.71 µM, the IC50 [2] was 4.15 ± 0.18 µM and the IC50 [3] was 0.279 ± 0.000611 µM. For the same compound, the IC50 [4] was 0.42 ± 0.34 µM, the IC50 [5] was 1.7 ± 0.79 µM and the IC50 [6] was 0.4 ± 0.13 µM. The IC50 [7] was 5.64 ± 1.28 µM, the IC50 [8] was 2.67 ± 1.34 µM and the IC50 [9] was 0.53 ± 0.2 µM. For the same compound, the IC50 [10] was 3.85 ± 3.26 µM, the IC50 [11] was 0.28 ± 0.01 µM and the IC50 [12] was 1.29 µM. For the same compound, the IC50 [13, 19] was 4.16 ± 0.93 µM, the IC50 [13, 20] was 1.37 to 5.6 µM and the IC50 [14] was 1.3 µM. For the same compound, the IC50 [15] was 15.5 ± 9.28 µM, the IC50 [16] was 0.56 ± 0.09 µM and the IC50 [17] was 1.42 ± 0.83 µM. For the same compound, the IC50 [18] was 6.4 ± 2.43 µM.
In the case of CC(C)[C@]12O[C@H]1[C@@H]1O[C@]13[C@]1(O[C@H]1C[C@H]1C4=C(CC[C@@]13C)C(=O)OC4)[C@@H]2OC(=O)CCCO[C@@H]1OC(CO)[C@@H](O)C(O)C1O (stereo in doubt) [Compound 1], the IC50 [1] is reported as 5.9 ± 0.28 µM, the IC50 [2] is reported as 5 ± 2.83 µM and the IC50 [3] is reported as 0.071 µM. For the same compound, the “fold more potent against cancer cells in vitro than compound 10” value ([3]; in vitro) was 4 fold, the IC50 [4] was 0.44 ± 0.25 µM and the IC50 [5] was 2.72 ± 1.41 µM. For the same compound, the IC50 [6] was 0.44 ± 0.19 µM, the IC50 [7] was 10.6 ± 1.22 µM and the IC50 [8] was 5.95 ± 2.45 µM. For the same compound, the IC50 [9] was 0.53 ± 0.28 µM, the IC50 [10] was 4.6 ± 4.55 µM and the IC50 [11] was 0.26 ± 0.1 µM. The IC50 [12] was 3.44 µM, the IC50 [13, 19] was 6.8 ± 1.67 µM and the IC50 [13, 20] was 4 to 10.9 µM. The IC50 [14] was 2.16 ± 1.59 µM, the IC50 [15] was 24.4 ± 8.9 µM and the IC50 [16] was 0.45 ± 0.33 µM. The IC50 [17] was 1.24 ± 0.61 µM and the IC50 [18] was 11.5 ± 5.51 µM.

Reference: patent publication US20230134986A1, “GLUCOSE TRIPTOLIDE CONJUGATES AND USES THEREOF” (The Johns Hopkins University, priority 2020, published 2023)
